In patent US9987278B2, “Pharmaceutical composition for treating FLT3 mutation-positive cancer, mutant FLT3 inhibitor and uses thereof” (FUJIFILM Corporation, priority 2014, dated 2018):

Key:
Type in all cases: cell-based
32D FLT3 D835N cells = assay: Cell growth assay, 32D FLT3 D835N; details: Mus musculus, 48 h, FLT3 D835N, 2 days with compound, read-out: GI50 value for growth of FLT3 protein-expressing 32D cells
Procedure: (§1) After the virus-containing culture supernatant was added to the mouse hematopoietic precursor cell line 32D cells in the presence of 10 μg/mL polybrene, and the cells were cultured in the presence of 0.5 ng/mL mouse IL-3.
(§2) Individual cells were seeded onto a 96-well plate (Becton, Dickinson and Company) at a density of 1000 to 10000 cells/well, and the cell culture was started at 37° C. in the presence of 5% CO2. On the next day, the compound diluted in 3-fold common ratio was added to each well, followed by further culturing for 2 days. Then, in order to evaluate the cell viability, a CellTiter 96 AQueous One SolutionReagent was added to each well according to the Promega Corporation's protocol, followed by culturing for 1 hour. […] In a case where the absorbance is insufficient, the absorbance was measured after performing the culturing for another 1 to 2 hours.

32D FLT3 D835Ins cells = assay: Cell growth assay, 32D FLT3 D835Ins; details: Mus musculus, 48 h, FLT3 D835Ins (I836 to leucine and aspartic acid), 2 days with compound, read-out: GI50 value for growth of FLT3 protein-expressing 32D cells
Procedure: as §1, §2

32D FLT3 D835H cells = assay: Cell growth assay, 32D FLT3 D835H; details: Mus musculus, 48 h, FLT3 D835H, 2 days with compound, read-out: GI50 value for growth of FLT3 protein-expressing 32D cells
Procedure: as §1, §2

[1] = tested on: FLT3 ITD-expressing 32D cells; assay: Cell growth assay, FLT3 ITD-expressing 32D cells; details: Mus musculus, read-out: GI50 value for growth of FLT3 protein-expressing 32D cells
Source text: The ITD-mutant FLT3-expressing vector was constructed by introducing an ITD-mutant FLT3 gene (clone Mt2) described in Kiyoi H, et al., Leukemia, Vol. 12, pp. 1333 to 1337, 1998 into a pMXs-IP retroviral vector as a sequence having a FLAG sequence added to the C-terminal thereof.
(§3) The mutant FLT3 pMXs-IP retroviral vectors prepared according to the above-mentioned procedure were introduced into PLAT-E cells by using FuGENE6, followed by culturing for 2 days, and the culture supernatant containing viruses was collected. After the virus-containing culture supernatant was added to the mouse hematopoietic precursor cell line 32D cells in the presence of 10 μg/mL polybrene, and the cells were cultured in the presence of 0.5 ng/mL mouse IL-3. […]
(§4) Individual cells were seeded onto a 96-well plate (Becton, Dickinson and Company) at a density of 1000 to 10000 cells/well, and the cell culture was started at 37° C. in the presence of 5% CO2. […] Thereafter, the absorbance (OD=492 nm) was measured using an MPR-A4i II microplate reader (Tosoh Corporation). In a case where the absorbance is insufficient, the absorbance was measured after performing the culturing for another 1 to 2 hours. […]

32D FLT3 Y842C cells = assay: Cell growth assay, 32D FLT3 Y842C; details: Mus musculus, 48 h, FLT3 Y842C, 2 days with compound, read-out: GI50 value for growth of FLT3 protein-expressing 32D cells
Procedure: as §1, §2

[2] = tested on: FLT3 ITD.D835Y-expressing 32D cells; assay: Cell growth assay, FLT3 ITD.D835Y-expressing 32D cells; details: Mus musculus, read-out: GI50 value for growth of FLT3 protein-expressing 32D cells
Source text: The ITD.D835Y-mutant FLT3-expressing vector was constructed by replacing a sequence containing aspartic acid 835 cleaved by Sphl, in the C-terminal FLAG sequence-added ITD-mutant FLT3 gene inserted into a pGEM-T vector, with the corresponding sequence of the C-terminal FLAG sequence-added D835Y-mutant FLT3 gene inserted into a pGEM-T vector, and then inserting the whole length of C-terminal FLAG sequence-added ITD.D835Y-mutant FLT3 sequence into a pMXs-IP retroviral vector.
as §3, §4

[3] = tested on: FLT3 ITD.Y842H-expressing 32D cells; assay: Cell growth assay, FLT3 ITD.Y842H-expressing 32D cells; details: Mus musculus, read-out: GI50 value for growth of FLT3 protein-expressing 32D cells
Source text: (§5) The ITD.Y842C-mutant or ITD.Y842H-mutant FLT3-expressing vector was constructed by introducing Y842C and Y842H mutations into the C-terminal FLAG sequence-added ITD-mutant FLT3 gene inserted into a pGEM-T vector as a template, using the primers shown below and according to the protocol of a QuikChange Site-Directed Mutagenesis Kit (Stratagene Corporation), and then inserting the whole length of the ITD.Y842-mutant FLT3 gene into a pMXs-IP retroviral vector. Introduced mutations were confirmed by sequence analysis.
(§6) The mutant FLT3 pMXs-IP retroviral vectors prepared according to the above-mentioned procedure were introduced into PLAT-E cells by using FuGENE6, followed by culturing for 2 days, and the culture supernatant containing viruses was collected. […]
as §4

32D FLT3/FL cells = assay: Cell growth assay, FLT3/FLT3 ligand-coexpressing 32D cell line; details: Mus musculus, 48 h, FLT3/FL, 2 days with compound, read-out: GI50 value for growth of FLT3 protein-expressing 32D cells
Procedure: RPMI1640 and DMEM were purchased from Life Technologies or SIGMA. The 32D cells were obtained from RIKEN Bioresource Center, and cultured in the presence of 5% CO2 at 37° C. using an RPMI1640 medium containing 1 ng/mL mouse IL-3, 10% fetal bovine serum (FBS), 100 U/mL penicillin and […] streptomycin. The PLAT-E cells were kindly provided by Dr. Kitamura Toshio of Tokyo University and cultured in a DMEM medium containing 1 μg/mL puromycin, 10 μg/mL blasticidin S, 10% FBS, 100 U/mL penicillin and […] streptomycin. […] A pGEM-T vector, FuGENE6 and CellTiter 96 AQueous One Solution Cell Proliferation Assay were purchased from Promega Corporation.
as §2

32D FLT3 Y842H cells = assay: Cell growth assay, 32D FLT3 Y842H; details: Mus musculus, 48 h, FLT3 Y842H, 2 days with compound, read-out: GI50 value for growth of FLT3 protein-expressing 32D cells
Procedure: as §1, §2

32D FLT3 D835Y cells = assay: Cell growth assay, 32D FLT3 D835Y; details: Mus musculus, 48 h, FLT3 D835Y, 2 days with compound, read-out: GI50 value for growth of FLT3 protein-expressing 32D cells
Procedure: as §1, §2

32D FLT3 D835V cells = assay: Cell growth assay, 32D FLT3 D835V; details: Mus musculus, 48 h, FLT3 D835V, 2 days with compound, read-out: GI50 value for growth of FLT3 protein-expressing 32D cells
Procedure: as §1, §2

32D FLT3 D835E cells = assay: Cell growth assay, 32D FLT3 D835E; details: Mus musculus, 48 h, FLT3 D835E, 2 days with compound, read-out: GI50 value for growth of FLT3 protein-expressing 32D cells
Procedure: as §1, §2

[4] = tested on: FLT3 ITD.Y842C-expressing 32D cells; assay: Cell growth assay, FLT3 ITD.Y842C-expressing 32D cells; details: Mus musculus, read-out: GI50 value for growth of FLT3 protein-expressing 32D cells
Source text: as §5, §6, §4

SMILES: CCCNc1nc(Nc2ccc(C#N)cc2)ncc1C#CCCCNC(=O)[C@H](C)N(C)C(=O)/C=C/CN(C)C [Compound 38]
- GI50 (32D FLT3 D835N cells): 1 to 10 nM
- GI50 (32D FLT3 D835Ins cells): 1 to 10 nM
- GI50 (32D FLT3 D835H cells): 1 to 10 nM
- GI50 [1]: 1 to 10 nM
- GI50 (32D FLT3 Y842C cells): 1 to 10 nM
- GI50 [2]: 1 to 10 nM
- GI50 [3]: < 1 nM
- GI50 (32D FLT3/FL cells): 1 to 10 nM
- GI50 (32D FLT3 Y842H cells): 1 to 10 nM
- GI50 (32D FLT3 D835Y cells): < 1 nM
- GI50 (32D FLT3 D835V cells): < 1 nM
- GI50 (32D FLT3 D835E cells): 1 to 10 nM
- GI50 [4]: 1 to 10 nM
